These results are taken from patent US8329445B2, “Biosynthesis of phloroglucinol and preparation of 1,3-dihydroxybenzene therefrom” (Board of Trustees of Michigan State University, priority 2004, dated 2012).

A value given as a limit tells only on which side of the number the result lay.

One data set concerns E. coli strains. Kind of data set: end-product inhibition in fed-batch fermentation of phlD-expressing E. coli strains. Type of data set: cell-based. The settings on record: culture medium concentration; data not shown. The protocol:
Plasmid pJA3.131A (Kan^R, lacI^Q, PT7-phlD, serA) is transfected into chromosomally serA^− E. coli strains BL21(DE3), W3110(DE3), and JWF1(DE3) [i.e. RB791serA^−(DE3)], and into strain KL3(DE3) [i.e. AB2834(serA::aroB)] (E. coli strains RB791 and AB2834 are available from the E. coli Genetic Stock Center, New Haven, Conn., USA). All DE3 strains are obtained by integration of λDE3 prophage into the cell chromosomes. Cells are cultured in fed-batch conditions under mineral salts and limited glucose.
In these tests, phloroglucinol accumulation for all strains stops increasing during the stationary (or maintenance) phase. For BL21 and W3110, the highest phloroglucinol concentration is achieved about 6 hours and about 12 hours, respectively, after initiation of induction, i.e. the first IPTG addition. End-product inhibition is also observed.

The next data set has as its target T1, 2-pyrone synthase (Gerbera hybrida, UniProt P48391).
T1 construct: made in house
T1 sequence (P48391 1-402): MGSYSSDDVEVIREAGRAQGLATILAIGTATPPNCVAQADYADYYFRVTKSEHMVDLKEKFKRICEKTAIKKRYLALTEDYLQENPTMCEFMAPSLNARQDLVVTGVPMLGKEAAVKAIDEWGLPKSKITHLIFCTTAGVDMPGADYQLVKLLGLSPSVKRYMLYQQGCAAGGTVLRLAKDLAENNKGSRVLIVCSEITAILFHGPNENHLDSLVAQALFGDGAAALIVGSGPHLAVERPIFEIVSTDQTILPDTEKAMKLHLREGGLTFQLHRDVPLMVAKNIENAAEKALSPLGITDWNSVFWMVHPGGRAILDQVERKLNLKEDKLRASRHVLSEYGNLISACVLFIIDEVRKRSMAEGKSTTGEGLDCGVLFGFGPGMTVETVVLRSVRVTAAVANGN
Kind of data set: in vitro enzymology of purified 2-pyrone synthase. Type of data set: biochemical. An excerpt:
(§1) To further explore its role in phloroglucinol biosynthesis, PhlD is purified to homogeneity and its in vitro enzymology examined. No activity (Table 1) is observed when acetyl-CoA alone is employed as a substrate. […] For comparison, 2-pyrone synthase, which like PhlD employs an activated 3,5-diketohexanoate 2 (Scheme 1), is purified to homogeneity.

A further data set concerns the target T2, PhlD (Pseudomonas fluorescens, UniProt Q4K418).
T2 construct: made in house
T2 sequence (Q4K418 1-349): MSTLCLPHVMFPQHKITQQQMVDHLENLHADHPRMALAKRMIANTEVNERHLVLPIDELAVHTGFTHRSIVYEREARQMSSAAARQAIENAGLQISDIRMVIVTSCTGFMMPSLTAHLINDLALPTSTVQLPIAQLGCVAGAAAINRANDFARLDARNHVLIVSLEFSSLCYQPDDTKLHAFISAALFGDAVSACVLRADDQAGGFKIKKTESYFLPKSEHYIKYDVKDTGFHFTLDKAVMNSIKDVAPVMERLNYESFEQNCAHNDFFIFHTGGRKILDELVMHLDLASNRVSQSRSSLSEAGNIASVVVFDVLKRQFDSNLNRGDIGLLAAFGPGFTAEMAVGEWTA
Kind of data set: in vitro enzymology of purified PhlD. Type of data set: biochemical, P. fluorescens Pf-5.
Description: as §1

Substrate in data set [1]: CC(C)(COP(=O)(O)OP(=O)(O)OC[C@H]1O[C@@H](n2cnc3c(N)ncnc32)[C@H](O)[C@@H]1OP(=O)(O)O)[C@@H](O)C(=O)NCCC(=O)NCCSC(=O)CC(=O)O
Kind of data set: in vitro enzymology of purified PhlD. Type of data set: biochemical, P. fluorescens Pf-5. Particulars: other: substrate of PhlD purified to homogeneity.
Description: as §1

Substrate in data set [2]: CC(=O)SCCNC(=O)CCNC(=O)[C@H](O)C(C)(C)COP(=O)(O)OP(=O)(O)OC[C@H]1O[C@@H](n2cnc3c(N)ncnc32)[C@H](O)[C@@H]1OP(=O)(O)O
Kind of data set: in vitro enzymology of purified 2-pyrone synthase. The data set is classed as biochemical, Gerbera hybrida. Particulars: other: substrate of 2-pyrone synthase purified to homogeneity.
Description: as §1

As to `Oc1cc(O)cc(O)c1` [phloroglucinol, 1,3,5-trihydroxybenzene], the “concentration at which phloroglucinol is responsible for end-product inhibition” value in the data set on E. coli strains is recorded as not below 2 g/L.
Turning to `CC(=O)SCCNC(=O)CCNC(=O)[C@H](O)C(C)(C)COP(=O)(O)OP(=O)(O)OC[C@H]1O[C@@H](n2cnc3c(N)ncnc32)[C@H](O)[C@@H]1OP(=O)(O)O` [acetyl-CoA], at 2-pyrone synthase (2-pyrone synthase incubated with malonyl-CoA and acetyl-CoA), the “specific activity with malonyl-CoA and acetyl-CoA relative to malonyl-CoA in the absence of acetyl-CoA” value is “twofold higher”. The activity as substrate result is “unable to use acetyl-CoA as a substrate” on 2-pyrone synthase (acetyl-CoA as a substrate of 2-pyrone synthase) and “No activity” on PhlD (employed alone as a substrate of PhlD). Further, the “specific activity with malonyl-CoA and acetyl-CoA relative to only malonyl-CoA” value on PhlD (PhlD incubated with malonyl-CoA and acetyl-CoA) is “Approximately equal”.
“2-pyrone synthase: 2-pyrone synthase from Gerbera hybrida, converts malonyl-CoA into triacetic acid lactone; comparison enzyme”: in the data set with 2-pyrone synthase (2-pyrone synthase purified to homogeneity), the kcat was 0.055 s⁻¹.

B1: PhlD (Pseudomonas protegens Pf-5) (protein)
chain: T2 sequence (Q4K418 1-349)
notes: made in house
As for B1, in data set [1], the Km came out at 37 µM.

B2: PhlD: phloroglucinol synthase expressed from phlD gene of P. fluorescens Pf-5, SEQ ID NO:2 (protein)
chain: T2 sequence (Q4K418 1-349)
modifications: Pseudomonas fluorescens Pf-5
With B2, the kcat with PhlD (PhlD purified to homogeneity, malonyl-CoA substrate) was 0.0783 s⁻¹.

B3: 2-pyrone synthase (Gerbera hybrid cultivar) (protein)
chain: T1 sequence (P48391 1-402)
notes: made in house
B3: the Km in data set [2] came to 2.2 µM.
